Data published in patent publication EP1444982A1, “The use of purine derivatives as selective kinase inhibitors” (MERCKLE GMBH, priority 2003, dated 2004).

Experiments:
Format in all cases: biochemical
Lck (h) = Lck (h) (Homo sapiens, UniProt P06239); test: Kinase inhibition assay (33P-ATP, P30 filter, scintillation counting): Lck; details: 30µM Testsubstanz (100 µM ATP); read-out: Hemmung von Kinasen in % Lck (h)
Experimental: (§1) Alle Kinasen werden auf zehnfache Arbeitskonzentration vor Anwendung in dem Essay verdünnt. Die Zusammensetzung des Verdünnungspuffers ist für jede Kinase in der nachfolgenden Tabelle angegeben.
(§2) Alle Substrate werden gelöst und auf eine Stammlösung in entsalztem Wasser verdünnt.
(§3) Lck (h)(5-10 mU) in einem Endreaktionsvolumen von 25 µl wird mit 50 mM Tris pH 7.5, 0.1 mM EGTA, 0.1 mM NaVanadate, 250 µM KVEKIGEGTYGVVYK (Cdc2 Peptid), 10 mM MgAcetat und [γ-^33P-ATP] inkubiert (spezifische Aktivität etwa 500 cpm/pmol, Konzentration wie erforderlich). Die Reaktion wird durch Zugabe von Mg^2+[γ-^33P-ATP] initiiert. Nach 40-minütiger Inkubation bei Raumtemperatur wird die Reaktion durch Zugabe von 5 µl einer 3 %igen Phosphorsäurelösung gestoppt. 10 µl der Reaktion werden dann auf ein P30-Filter gegeben und dreimal jeweils 5 Minuten in 50 mM Phosphorsäure und einmal in Methanol gewaschen. Anschließend wird getrocknet und eine Szintillationszählung durchgeführt.

GSK3β (h) = GSK3β (h) (Homo sapiens, UniProt P49841); test: Kinase inhibition assay (33P-ATP, P30 filter, scintillation counting): GSK3β; details: 30µM Testsubstanz (100 µM ATP); read-out: Hemmung von Kinasen in % GSK3β (h)
Chain of GSK3β (h) (P49841 whole entry): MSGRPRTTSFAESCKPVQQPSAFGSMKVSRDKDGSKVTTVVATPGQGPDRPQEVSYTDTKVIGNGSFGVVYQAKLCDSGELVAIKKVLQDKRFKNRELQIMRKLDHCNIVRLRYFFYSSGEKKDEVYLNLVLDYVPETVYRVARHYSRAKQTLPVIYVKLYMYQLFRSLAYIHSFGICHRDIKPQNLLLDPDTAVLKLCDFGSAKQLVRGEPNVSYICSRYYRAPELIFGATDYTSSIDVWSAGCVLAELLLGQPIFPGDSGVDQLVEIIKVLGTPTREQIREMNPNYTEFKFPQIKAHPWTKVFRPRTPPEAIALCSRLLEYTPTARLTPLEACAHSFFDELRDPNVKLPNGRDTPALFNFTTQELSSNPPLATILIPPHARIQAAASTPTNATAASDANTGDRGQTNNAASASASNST
Experimental: as §1, §2
as §3, with “GSK3β (h)(5-10mU) in” for “Lck (h)(5-10 mU) in”, “mit 8” for “mit 50”, “mM MOPS” for “mM Tris”, “pH 7.0, 0.2” for “pH 7.5, 0.1”, “mM EDTA, 20” for “mM EGTA, 0.1 mM NaVanadate, 250”, “µM […](p) EDEEE (phospho GS2” for “µM KVEKIGEGTYGVVYK (Cdc2”

PKA (h) = test: Kinase inhibition assay (33P-ATP, P30 filter, scintillation counting): PKA; details: 30µM Testsubstanz (100 µM ATP); 40 min
MAPK1 (h) = MAPK1 (h) (Homo sapiens, UniProt P27361); test: Kinase inhibition assay: MAPK1; details: 30µM Testsubstanz (100 µM ATP); read-out: Hemmung von Kinasen in % MAPK1 (h)
Chain of MAPK1 (h) (P27361 whole entry): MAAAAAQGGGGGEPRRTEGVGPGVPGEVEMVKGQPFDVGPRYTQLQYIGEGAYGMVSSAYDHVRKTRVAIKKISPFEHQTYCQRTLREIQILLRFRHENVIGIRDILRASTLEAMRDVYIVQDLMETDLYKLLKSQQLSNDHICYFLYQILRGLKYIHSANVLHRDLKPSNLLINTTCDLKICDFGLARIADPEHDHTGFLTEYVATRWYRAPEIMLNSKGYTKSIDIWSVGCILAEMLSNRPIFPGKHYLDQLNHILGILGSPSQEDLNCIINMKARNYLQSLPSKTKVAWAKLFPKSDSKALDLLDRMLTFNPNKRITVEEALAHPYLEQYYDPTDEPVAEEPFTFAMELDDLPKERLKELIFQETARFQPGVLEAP
Text: as §1, §2

SAPK2a (h) = SAPK2a (h) (Homo sapiens, UniProt Q16539); test: Kinase inhibition assay (33P-ATP, P30 filter, scintillation counting): SAPK2a; details: 30µM Testsubstanz (100 µM ATP); read-out: Hemmung von Kinasen in % SAPK2a (h)
Chain of SAPK2a (h) (Q16539 whole entry): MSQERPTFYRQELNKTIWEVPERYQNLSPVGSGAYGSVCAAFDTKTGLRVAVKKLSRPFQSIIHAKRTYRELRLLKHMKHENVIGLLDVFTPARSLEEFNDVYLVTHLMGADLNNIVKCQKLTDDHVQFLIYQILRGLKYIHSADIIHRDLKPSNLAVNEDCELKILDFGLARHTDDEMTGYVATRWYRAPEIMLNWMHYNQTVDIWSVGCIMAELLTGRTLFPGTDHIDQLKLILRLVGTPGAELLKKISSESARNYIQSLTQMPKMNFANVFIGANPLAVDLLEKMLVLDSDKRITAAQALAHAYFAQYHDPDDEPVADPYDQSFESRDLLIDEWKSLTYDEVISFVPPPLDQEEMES
Experimental: as §1, §2
as §3, with “SAPK2a (h) wird in” for “Lck (h)(5-10 mU) in”, “µl” for “µl wird”, “mit 25” for “mit 50”, “pH 7,5, 0.02” for “pH 7.5, 0.1”, “EGTA, 0.33 mg/ml Myelin-Basisprotein,” for “EGTA, 0.1 mM NaVanadate, 250 µM KVEKIGEGTYGVVYK (Cdc2 Peptid),”, “etwa 50” for “etwa 500”

MAPK2 (h) = MAPK2 (h) (Homo sapiens, UniProt P28482); test: Kinase inhibition assay: MAPK2; details: 30µM Testsubstanz (100 µM ATP); read-out: Hemmung von Kinasen in % MAPK2 (h)
Chain of MAPK2 (h) (P28482 whole entry): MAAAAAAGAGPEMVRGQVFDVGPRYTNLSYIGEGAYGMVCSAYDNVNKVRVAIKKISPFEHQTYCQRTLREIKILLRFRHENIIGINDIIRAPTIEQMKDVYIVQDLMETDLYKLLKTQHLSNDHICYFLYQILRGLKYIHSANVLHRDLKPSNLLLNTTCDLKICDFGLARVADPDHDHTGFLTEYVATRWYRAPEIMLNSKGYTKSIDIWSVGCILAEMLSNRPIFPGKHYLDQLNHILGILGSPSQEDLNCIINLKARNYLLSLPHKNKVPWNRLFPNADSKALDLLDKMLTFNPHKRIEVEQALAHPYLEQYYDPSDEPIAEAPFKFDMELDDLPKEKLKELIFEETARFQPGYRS
Text: as §1, §2

PKB (h) = PKB (h) (Homo sapiens, UniProt P31749); test: Kinase inhibition assay (33P-ATP, P30 filter, scintillation counting): PKB; details: 40 min; 30µM Testsubstanz (100 µM ATP); read-out: Hemmung von Kinasen in % PKB (h)
Chain of PKB (h) (P31749 whole entry): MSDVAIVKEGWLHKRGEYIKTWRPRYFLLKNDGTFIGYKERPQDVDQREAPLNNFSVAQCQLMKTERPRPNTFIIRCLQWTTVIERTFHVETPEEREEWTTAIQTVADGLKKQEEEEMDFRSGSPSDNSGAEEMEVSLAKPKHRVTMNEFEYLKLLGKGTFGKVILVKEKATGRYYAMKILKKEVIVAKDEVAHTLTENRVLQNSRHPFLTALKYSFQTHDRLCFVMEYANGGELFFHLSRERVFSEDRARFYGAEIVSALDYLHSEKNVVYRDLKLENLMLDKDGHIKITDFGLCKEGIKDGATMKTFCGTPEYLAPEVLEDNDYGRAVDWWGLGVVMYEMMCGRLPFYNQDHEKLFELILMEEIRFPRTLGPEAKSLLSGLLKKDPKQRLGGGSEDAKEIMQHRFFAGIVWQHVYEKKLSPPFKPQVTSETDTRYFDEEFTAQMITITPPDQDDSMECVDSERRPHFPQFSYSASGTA
Experimental: as §1, §2
PKBα (h)(5-10mU) wird in einem Endreaktionsvolumen von 25 µl mit 8 mM MOPS pH 7.0, 0.2 mM EDTRA, 30 µM GRPRTSSFAEGKK, 10 mM MgAcetat und [γ-^33P-ATP] inkubiert (spezifische Aktivität etwa 50 cpm/pmol, Konzentration wie erforderlich). Die Reaktion wird durch Zugabe von Mg^2+[γ-^33P-ATP] initiiert. Nach 40-minütiger Inkubation bei Raumtemperatur wird die Reaktion durch Zugabe von 5 µl einer 3 %igen Phosphorsäurelösung gestoppt. 10 µl der Reaktion werden dann auf ein P30-Filter gegeben und dreimal jeweils 5 Minuten in 50 mM Phosphorsäure und einmal in Methanol gewaschen. Anschließend wird getrocknet und eine Szintillationszählung durchgeführt.

MEK1 (h) = MEK1 (h) (Homo sapiens, UniProt Q02750); test: Kinase inhibition assay: MEK1 (coupled to MAPK2 assay); details: 30µM Testsubstanz (100 µM ATP); read-out: Hemmung von Kinasen in % MEK1 (h)
Chain of MEK1 (h) (Q02750 whole entry): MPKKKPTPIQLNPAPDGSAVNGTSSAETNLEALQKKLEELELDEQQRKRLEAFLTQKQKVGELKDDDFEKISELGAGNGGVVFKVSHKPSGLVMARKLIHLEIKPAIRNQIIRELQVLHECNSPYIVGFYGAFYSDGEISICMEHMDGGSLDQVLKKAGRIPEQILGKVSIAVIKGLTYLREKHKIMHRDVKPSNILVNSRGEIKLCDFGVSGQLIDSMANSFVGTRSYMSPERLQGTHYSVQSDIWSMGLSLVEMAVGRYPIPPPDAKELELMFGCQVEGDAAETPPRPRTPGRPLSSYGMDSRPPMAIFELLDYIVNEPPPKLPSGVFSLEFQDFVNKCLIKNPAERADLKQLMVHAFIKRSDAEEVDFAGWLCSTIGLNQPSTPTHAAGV
Experimental: as §1, §2
MEK1 (h)(1-5 mU) in einem Endreaktionsvolumen von 25 µl wird mit 50 mM Tris pH 7.5, 0.2 mM EGTA, 0.1 % b-Mercaptoethanol, 0,01 % Brij-35, 1 µM inaktives MAPK2 (m), 10 mM MgAcetat und kaltem ATP inkubiert (Konzentration wie erforderlich). Die Reaktion wird durch Zugabe von MgATB initiiert. Nach 40-minütiger Inkubation bei Raumtemperatur werden […] dieses Inkubationsgemisches dazu verwendet, den oben beschriebenen MAPK2-Assay zu initiieren.

ROCKII (h) = test: Kinase inhibition assay (33P-ATP, P30 filter, scintillation counting): ROCK-II; details: 30µM Testsubstanz (100 µM ATP); 40 min
c-RAF (h) = c-RAF (h) (Homo sapiens, UniProt P04049); test: Kinase inhibition assay (33P-ATP, P30 filter, scintillation counting): c-RAF; details: 40 min; 30µM Testsubstanz (100 µM ATP); read-out: Hemmung von Kinasen in % c-RAF (h)
Chain of c-RAF (h) (P04049 whole entry): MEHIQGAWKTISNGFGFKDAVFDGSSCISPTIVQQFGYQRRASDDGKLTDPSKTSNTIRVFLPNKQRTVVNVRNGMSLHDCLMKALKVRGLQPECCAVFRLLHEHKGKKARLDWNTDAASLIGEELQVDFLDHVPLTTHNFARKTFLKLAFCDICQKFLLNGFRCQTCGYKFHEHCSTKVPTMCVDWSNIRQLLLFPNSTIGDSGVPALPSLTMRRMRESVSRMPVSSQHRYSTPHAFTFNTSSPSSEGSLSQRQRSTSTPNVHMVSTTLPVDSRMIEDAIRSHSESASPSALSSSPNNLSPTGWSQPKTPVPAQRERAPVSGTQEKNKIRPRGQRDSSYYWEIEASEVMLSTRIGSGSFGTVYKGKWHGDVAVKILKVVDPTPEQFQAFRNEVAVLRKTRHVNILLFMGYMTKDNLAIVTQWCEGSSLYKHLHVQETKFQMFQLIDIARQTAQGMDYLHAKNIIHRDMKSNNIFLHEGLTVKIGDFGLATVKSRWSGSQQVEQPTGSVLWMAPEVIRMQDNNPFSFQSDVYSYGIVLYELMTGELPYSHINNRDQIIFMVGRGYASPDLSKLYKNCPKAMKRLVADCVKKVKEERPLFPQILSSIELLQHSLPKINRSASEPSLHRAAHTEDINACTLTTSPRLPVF
Experimental: as §1, §2
as §3, with “c-RAF (ha)(5-10 mU)” for “Lck (h)(5-10 mU)”, “mit 25” for “mit 50”, “pH 7.5,.0.02” for “pH 7.5, 0.1”, “EGTA, 0.66 mg/ml Myelin-Basisprotein,” for “EGTA, 0.1 mM NaVanadate, 250 µM KVEKIGEGTYGVVYK (Cdc2 Peptid),”, “etwa 50” for “etwa 500”

JNK3 (r) = JNK3 (r) (Rattus norvegicus, UniProt P49187); test: Kinase inhibition assay: JNK3; details: 30µM Testsubstanz (100 µM ATP); read-out: Hemmung von Kinasen in % JNK3 (r)
Chain of JNK3 (r) (P49187 whole entry): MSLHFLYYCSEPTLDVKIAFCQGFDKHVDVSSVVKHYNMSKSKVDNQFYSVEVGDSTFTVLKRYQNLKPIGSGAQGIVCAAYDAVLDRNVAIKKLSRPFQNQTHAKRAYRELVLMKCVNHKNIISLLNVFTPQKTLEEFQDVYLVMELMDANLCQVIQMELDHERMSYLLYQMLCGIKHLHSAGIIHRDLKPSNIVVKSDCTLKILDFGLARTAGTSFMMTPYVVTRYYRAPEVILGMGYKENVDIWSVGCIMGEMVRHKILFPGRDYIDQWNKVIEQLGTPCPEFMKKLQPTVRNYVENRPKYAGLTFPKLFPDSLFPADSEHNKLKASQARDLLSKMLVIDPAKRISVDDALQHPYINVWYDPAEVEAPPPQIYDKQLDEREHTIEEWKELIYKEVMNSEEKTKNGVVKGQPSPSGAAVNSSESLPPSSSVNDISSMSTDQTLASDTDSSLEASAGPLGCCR
Text: as §1, §2

Chain of Lck (h) (P06239 whole entry): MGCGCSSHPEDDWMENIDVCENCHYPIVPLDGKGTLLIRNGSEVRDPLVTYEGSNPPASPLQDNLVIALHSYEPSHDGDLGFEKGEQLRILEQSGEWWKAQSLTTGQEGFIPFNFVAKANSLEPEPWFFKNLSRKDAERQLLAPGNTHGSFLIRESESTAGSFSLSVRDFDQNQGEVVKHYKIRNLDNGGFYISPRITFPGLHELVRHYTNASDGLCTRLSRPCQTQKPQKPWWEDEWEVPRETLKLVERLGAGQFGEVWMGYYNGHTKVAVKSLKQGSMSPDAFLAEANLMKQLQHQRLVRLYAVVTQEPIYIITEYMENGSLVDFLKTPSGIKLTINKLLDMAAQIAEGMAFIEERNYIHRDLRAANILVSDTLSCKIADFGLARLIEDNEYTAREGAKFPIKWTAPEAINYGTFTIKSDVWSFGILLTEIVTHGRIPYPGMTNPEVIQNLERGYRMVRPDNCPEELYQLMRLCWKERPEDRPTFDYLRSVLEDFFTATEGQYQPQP

Row | SMILES | inhibition at 30 µM (Lck (h)) | inhibition at 30 µM (GSK3β (h)) | Hemmung von Kinasen in % PKA (h) (PKA (h)) | inhibition at 30 µM (MAPK1 (h)) | inhibition at 30 µM (SAPK2a (h)) | inhibition at 30 µM (MAPK2 (h)) | inhibition at 30 µM (PKB (h)) | inhibition at 30 µM (MEK1 (h)) | Hemmung von Kinasen in % ROCKII (h) (ROCKII (h)) | inhibition at 30 µM (c-RAF (h)) | inhibition at 30 µM (JNK3 (r))
1 | Fc1ccc(Sc2ncnc3[nH]cnc23)cc1 [Verbd. 16, 6-(4-Fluoro-phenylsulfanyl)-9H-purin] | 13% | 0% | 10% | 2% | 72% | 12% | 0% | 2% | 37% | 29% | 8%
2 | c1ccc(Cn2cnc3c(Sc4ccccc4)ncnc32)cc1 [Verbd. 74, 9-Benzyl-6-phenylsulfanyl-9H-purin] | 0% | 1% | 0% | 0% | 64% | 0% | 1% | 6% | 1% | 0% | 0%
3 | Nc1ncnc2ncn(Cc3ccc(F)cc3)c12 [Verbd. 43, 7-(4-Fluoro-benzyl)-7H-purin-6-ylamin] | 0% | 0% | 7% | 26% | 8% | 5% | 0% | 8% | 6% | 28% | 25%
4 | c1ccc(Sc2ncnc3[nH]ccc23)cc1 [Verbd. 52, 4-Phenylsulfanyl-7H-pyrrolo[2,3-d]pyrimidin] | 56% | 11% | 0% | 11% | 56% | 4% | 0% | 41% | 36% | 22% | 0%
5 | Fc1ccc(Cn2cnc3c(Sc4ccc(F)cc4)ncnc32)cc1 [Verbd. 77, 9-(4-Fluoro-benzyl)-6-(4-fluoro-phenylsulfanyl)-9H-purin] | 16% | 8% | 0% | 6% | 27% | 0% | 0% | 3% | 0% | 0% | 0%
6 | Cn1c(-c2ccc(S(C)(=O)=O)cc2)nc2c(Sc3ccccc3)ncnc21 [Verbd. 62, 8-(4-Methansulfonyl-phenyl)-9-methyl-6-phenylsulfanyl-9H-purin] | 16% | 0% | 11% | 9% | 36% | 3% | 14% | 4% | 5% | 10% | 7%
7 | Nc1ncnc2c1ncn2Cc1ccc(F)cc1 [Verbd. 42a, 9-(4-Fluoro-benzyl)-9H-purin-6-ylamin] | 19% | 7% | 1% | 17% | 7% | 11% | 0% | 7% | 5% | 25% | 17%
8 | Cn1cnc2c(Sc3ccc(F)cc3)ncnc21 [Verbd. 18, 6-(4-Fluoro-phenylsulfanyl)-9-methyl-9H-purin] | 2% | 0% | 1% | 9% | 38% | 12% | 0% | 6% | 6% | 12% | 9%
9 | c1ccc(Nc2ncnc3[nH]cnc23)cc1 [Verbd. 1, Phenyl-(9H-purin-6-yl)-amin] | 39% | 13% | 32% | 22% | 34% | 33% | 14% | 19% | 48% | 19% | 11%
10 | Cn1cnc2c(Nc3ccccc3)ncnc21 [Verbd. 13, (9-Methyl-9H-purin-6-yl)-phenyl-amin] | 18% | 26% | 0% | 16% | 0% | 42% | 0% | 4% | 0% | 44% | 5%
11 | Cn1c(-c2ccccc2)nc2c(-c3ccc(F)cc3)ncnc21 [Verbd. 41, 6-(4-Fluoro-phenyl)-9-methyl-8-phenyl-9H-purin] | 17% | 26% | 0% | 20% | 23% | 1% | 31% | 5% | 0% | 24% | 12%
12 | Cn1c(-c2ccccc2)nc2c(Sc3ccc(F)cc3)ncnc21 [Verbd. 24, 6-(4-Fluoro-phenylsulfanyl)-9-methyl-8-phenyl-9H-purin] | 20% | 22% | 3% | 11% | 29% | 1% | 29% | 7% | 9% | 14% | 16%
